Molecular target: Bovine serum albumin (BSA) (Bos taurus, UniProt P02769)
Experiment: Trp fluorescence quenching
Format: binding
Conditions: 5 μM BSA, 0-15 μM dye, 10 mM HEPES pH 7.4, 298 K; double-log; n = 0.35

Bovine serum albumin (BSA), sequence (P02769 25-607): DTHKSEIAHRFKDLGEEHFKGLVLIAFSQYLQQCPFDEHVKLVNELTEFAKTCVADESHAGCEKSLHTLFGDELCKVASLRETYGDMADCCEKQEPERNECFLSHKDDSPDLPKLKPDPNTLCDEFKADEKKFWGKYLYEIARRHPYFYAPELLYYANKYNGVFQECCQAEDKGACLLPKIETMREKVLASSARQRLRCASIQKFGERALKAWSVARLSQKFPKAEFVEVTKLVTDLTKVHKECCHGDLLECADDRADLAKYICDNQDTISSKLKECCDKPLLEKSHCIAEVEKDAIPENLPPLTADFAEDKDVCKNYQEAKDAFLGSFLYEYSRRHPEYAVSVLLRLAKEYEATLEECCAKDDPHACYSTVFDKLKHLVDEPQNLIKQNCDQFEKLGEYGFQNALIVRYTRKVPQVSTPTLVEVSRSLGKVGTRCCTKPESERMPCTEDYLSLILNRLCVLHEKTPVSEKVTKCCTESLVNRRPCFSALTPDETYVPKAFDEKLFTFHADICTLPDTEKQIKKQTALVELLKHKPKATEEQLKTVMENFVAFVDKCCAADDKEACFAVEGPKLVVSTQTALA

Q: `c1ccc2c(c1)Nc1ccccc1S2` [PTZ] was tested. Which “Binding constant, K′” value did it give?
A: Its value is 6190 M⁻¹.

Source: article PMC8693680 (RSC Advances, 2021)
